Results as given in PMC5641089, “WX-132-18B, a novel microtubule inhibitor, exhibits promising anti-tumor effects” (Oncotarget, 2017).

Tests used:
[1] = system: T1, tubulin; assay: competition with BODIPY FL-vinblastine (fluorescence); assay type: binding, Canis lupus familiaris
T1 construct: tubulin prepared from fresh dog brain tissue; with alpha/beta-tubulin heterodimer

[2] = system: T1, tubulin; assay: competitive colchicine-tubulin fluorescence assay; limited trypsin proteolysis; assay type: binding, Canis lupus familiaris

| IC50 [2] [µM] | SMILES | IC50 [1] [µM] |
| --- | --- | --- |
|  | CC[C@]1(O)C[C@H]2CN(CCc3c([nH]c4ccccc34)[C@@](C(=O)OC)(c3cc4c(cc3OC)N(C=O)[C@H]3[C@@](O)(C(=O)OC)[C@H](OC(C)=O)[C@]5(CC)C=CCN6CC[C@]43[C@@H]65)C2)C1 [vincristine] | 6.97 ± 1.61 |
| 0.47 ± 0.1 | COc1ccc2c(c1)NC(=O)CN2c1nc(C)nc2ccccc12 [WX-132-18B] |  |
